For data set [1], the system named is MUC1. To be noted: MUC1-positive cells.
Procedure: Cell Culture: Human MCF-7 breast carcinoma and HeLa cervical carcinoma cella (obtained form the ATCC, Manassas, Va.) were grown in DMEM (high glucose; Mediatech, Cellgrow) supplemented with 10% heat-inactivated fetal calf serum (FCS) and 2 mM L-glutamate.
(§3) Immunoblot analysis: Cells were lysed in ice-cold lysis buffer (20 mM Tris-HCl, pH 8.0, 150 mM NaCl, 1% Triton-X-100, 1 mM phenylsulfonyl fluoride, 1 mM DTT, 10 μgm/ml aprotinin) for 30 min. Lysates were cleared by centrifugation for 20 min. at 4° C. as described (Yin et al, 2001). Proteins were separated by SDS-PAGE, transferred to nitrocellulose and probed with anti-DF3/MUC1 (Kufe, U.S. Pat. No. 5,506,34) or anti-β-actin (Sigma). The antigen-antibody complexes were visualized by enhanced chemiluminescence (ECL; Amersham Life Sciences).
CDDO downregulates MUC1 expression: MUC1-positive cells were treated with CDDO at concentrations of 1, 3 and 5 μM.
Data set [2] deals with MUC1 transcripts. The note with it: MCF-7 cells.
Procedure: Reverse transcription-polymerase chain reaction (RT-PCR): Total cellular RNA was extracted in Triazol, dissolved in RNAase-free water and incubated for 10 min. at 55° C. MUC1-specific primers (5′-[sequence]-3′ and 3′-[sequence]-5′) were designed to span a region within the genomic DNA that contains two introns and result in amplification of a 489-bp fragment from RNA and a 783-bp fragment from genomic DNA. RNA-specific primers for human β-actin were used as a control. The RNA was reverse transcribed and amplified using SuperScript One-Step RT-PCR with Platinum Taq (GIBCO-BRL Gaithersburg, Md.). Amplified fragments were analyzed by electrophoresis in 2% agarose gels.
To determine whether MUC1 expression is decreased at the mRNA level , RT-PCR was performed on MCF-7 cells treated with CDDO and the derivatives. […] Whereas CDDO induces apoptosis of diverse cell types, we assessed viability of MCF-7 cells under the same experimental conditions.
For data set [3], the system named is intracellular ROS. To be noted: MCF-7 cells, compared to control.
Procedure: Measurement of ROS levels: Cells were incubated with 10 mM DCF-DA Sigma) for 15 min. at 37° C. to assess ROS-mediated oxidation of the fluorescent compound DCF (LeBel et al., 1992). Fluorescence of oxidized DCF was measured at an excitation wavelength of 480 nm and an emission wavelength of 525 nm using a flow cytometer (Beckton Dickerson, Lincoln Park, N.J.).
As a control, cells were incubated with NAC, a scavenger of ROS.
Data set [4] relates to β-actin. The experiment in a line: β-actin expression after CDDO. The note with it: 5 μM.
Procedure: as §3
The test system of data set [5] is MUC1. The experiment in a line: MUC1 induction by oxidative and genotoxic stress (immunoblot). The note with it: available evidence; cells not given. As to the method: To determine whether MUC1 is induced in response to oxidative stress, MCF-7 cells were treated with hydrogen peroxide. Cell lysates were analyzed by immunoblotting with anti-DF3/MUC1 antibody. Lysates were prepared by suspending MCF-7 cells in lysis buffer (50 mM Tris, pH 7.6, 150 mM NaCl, 1 mM PMSF, 3 mM NaF, 1 mM sodium vandate, 1 mM DTT with protease inhibitors and either 1% NP-40 or 1% Brij-96) for 30 min. on ice. Lysates were cleared by centifugation and equal amounts of proteins were resolved by SDS-PAGE. Proteins were then transferred to nitrocellulose filters, blocked by incubation in 5% non-fat dry milk in PBS with 0.05% Tween-20 and probed with anti-MUC1 antibody (Pandey et al., 1995). Anti-actin was used as a control.
Similar studies were performed with genotoxic agents.
For orientation: In western blotting, separated proteins are transferred to a membrane and probed.

Data set [6] relates to ZR-75-1 breast carcinoma cells. As to the kind of experiment: Mitochondrial transmembrane potential in ZR-75-1 cells. Type of data set: cell-based, human. As for the experimental part: Analysis of mitochondrial transmembrane potential: Cells were incubated with 0.5 nM 3,3-dihexyloxocarbocyanine iodide (DiOC6[3]; Molecular Probes) for 30 min and analyzed by flow cytometry as described (Shapiro, 2000).
(§1) As a control, stable transfection of ZR-75-1 cells with the empty reterovirus had no effect on MUC1 expression. […] By contrast, CDDP treatment of ZR-75-1/MUC1siRNA cells was associated with a clear loss of ΔΨm. In concert with these findings, cytochrome C release, as measured by immunoblot, was attenuated in CDDP-treated ZR-75-1/vector cells, as compared to ZR-75-1/MUC1siRNA cells. […] Treatment of ZR-75-1/vector cells with CDDP was associated with the induction of approximately 25% apoptosis.

Data set [7] concerns cytochrome c release. As to the kind of experiment: Cytochrome c release (immunoblot) in ZR-75-1 cells. The class given is cell-based, human. The note with it: ZR-75-1/vector cells compared to ZR-75-1/MUC1siRNA cells. As for the experimental part:
Immunoblot analysis: Lysates were prepared from cells as described (Li et al., 2001]. Equal amounts of protein were separated by SDS-PAGE and transferred with anti-cytochrome c (BD PharMingen, San Diego, Calif.). The immunocomplexes were detected with horseradish peroxidase-conjugated secondary antibodies and enhanced chemiluminescence (ECL, Amersham Biosciences, Piscataway, N.J.). Intensity of the signals was determined by densiometric scanning.
as §1

In data set [8] the test system is ZR-75-1 breast carcinoma cells. The experiment in a line: Apoptosis assay (sub-G1 DNA) in ZR-75-1 cells. The class given is cell-based, human. As for the experimental part:
Apoptosis assay: Apoptotic cells were quantified by analysis of sub-G1 DNA. Cells were harvested, washed with PBS, fixed with 80% ethanol, and incubated in PBS containing 20 ng/ml RNase (Roche) for 60 min at 37° C. Cells were stained with 40 μg/ml propidium iodide (Sigma) for 30 min at room temperature in the dark. DNA content was analyzed by flow cytometry (EPICS XL-MCL, Coulter Corp.).
as §1

Data set [9] deals with ZR-75-1 tumors. The experiment in a line: ZR-75-1 tumor growth in nude mice. Type of data set: in vivo. To be noted: 7 mg/Kg CDDP intraperitoneal, FIG. 12. As for the experimental part:
FIG. 12: Summary of data showing that MUC1 confers resistance to CDDP in vivo. ZR-75-1/vector cells (∘, ●) or ZR-75-1/MUC1siRNA (¤, ▪) cells (1×10^7) were injected into nude mice that had been pretreated with β-estradiol. The mice were treated as indicated (arrows) with intraperitoneal injections of PBS (¤, ∘) or 7 mg/Kg CDDP (●, ▪). The results are expressed as the tumor volume (mean±S.D>of 4-8 mice per group.
To determine if knocking-down MUC1 affects chemosensitivity in vivo, mice were injected with ZR-75-1 cells stably expressing the empty viral vector or MUCsiRNA.

For data set [10], the system named is intrinsic apoptotic pathway. As to the kind of experiment: Release of mitochondrial factors and caspase-3 activation in HCT116 transfectants. Type of data set: cell-based, human. As for the experimental part:
Methods. Experimental procedures and methods were as described in Example 15.
(§2) Results. Treatment of cells with DNA-damaging agents is associated with release of mitochondrial cytochrome c and activation of the intrinsic apoptotic pathway. To determine if mitochondrial localization of the MUC1 C-ter affects cytochrome c release, the HCT116 transfectants were treated with cisplatin (CDDP). […] Release of cytochrome c in the response to genotoxic stress is associated with activation of caspase-3 and cleavage of PKCδ (Emoto et al., 1995). To assess the effects of MUC1 on caspase-3 activation, CDDP-treated cells were analyzed for cleavage of pro-caspase-3. […] Smac/DIABLO is a mitochondrial protein that induces caspase-dependent cell death by interacting with inhibitor of apoptosis proteins (IAPs) and blocking their caspase inhibitory activity (Du et al., 2000; Verhagen et al., 2000). To determine if MUC1 attenuates release of Smac/DIABLO, HCT116/vector, HCT116/MUC1 and HCT116/MUC(Y46F) cells were treated with CDDP for 24, 48 and 72 h, and cytosolic lysates were subjected to immunoblot analysis. […] CDDP treatment of HCT116/vector and HCT116/MUC1(Y46F) cells for 72 h was associated with>90% cell death and decreases in the β-actin signals used as a control for loading. By contrast, treatment of HCT116/MUC1 cells with CDDP for 72 h was associated with cessation of cell growth and<30% cell death. These findings indicate that mitochondrial localization of MUC1 C-ter attenuates DNA damage-induced activation of the intrinsic apoptotic pathway.

The subject of data set [11] is HCT116 cells. As to the kind of experiment: Cell death of HCT116 transfectants. The class given is cell-based, human. To be noted: 72 h. As to the method: as §2, with “These findings indicate that mitochondrial localization of MUC1 C-ter attenuates DNA damage-induced activation of the intrinsic apoptotic pathway.” left out
For data set [12], the system named is HCT116 cells. As to the kind of experiment: Apoptosis (sub-G1 DNA, TUNEL) in HCT116 transfectants. The class given is cell-based, human. The note with it: FIG. 15. As to the method:
Methods. Apoptotic cells were quantified by analysis of sub-G1 DNA and TUNEL staining. To assess sub-G1 DNA content, cells were harvested, washed with PBS, fixed with 80% ethanol, and incubated in PBS containing 20 ng/ml RNase (Roche) for 60 min at 37° C. Cells were then stained with […] propidium iodide (Sigma) for 30 min at room temperature in the dark. DNA content was analyzed by flow cytometry (EPICS XL-MCL, Coulter Corp.). Apoptotic cells with DNA fragmentation were detected by staining with the In Situ cell death detection kit (TUNEL; Roche Applied Science) and visualized by confocal microscopy (ZEISS LSM510). After staining, cells were analyzed by flow cytometry. Other experimental procedures and methods were as described in Example 15.
Results. To determine if MUC1 affects the induction of apoptosis by CDDP, cells were analyzed for sub-G1 DNA content. […] Stimulation of cell surface death receptors with TNF-α or the TNF-related apoptosis inducing factor TRAIL is associated with activation of the extrinsic apoptotic pathway. To determine if MUC1 affects death receptor-induced apoptosis, HCT116 cells were treated with TNF-α.

Data set [13] concerns MUC1 C-ter. As to the kind of experiment: Expression of MUC1 C-ter with CHX. The class given is cell-based, human.
The test system of data set [14] is MUC1 C-ter. As to the kind of experiment: Mitochondrial localization of MUC1 C-ter (immunoblot of mitochondrial fractions). The class given is cell-based, human. To be noted: HCT116/MUC1 or HCT116/MUC1(Y46F) cells; EGF 10 ng/ml. As to the method: Cell culture. Human HCT116 colon carcinoma cells (ATCC, Manassas, Va.) were cultured in Dulbecco's modified Eagle's medium/F12 with 10% heat-inactivated fetal bovine serum, 100 units/ml penicillin, […] streptomycin and 2 mM L-glutamine.
Cell transfections. HCT116 cells were transfected with pIRES-puro2, pIRESpuro2-MUC1 or pIRES-puro2-MUC1(Y46F) as described (Li et al., 2001a). SW480 cells were transfected with pIRES-puro2 or pIRES-puro2-MUC1. Stable transfectants were selected in the presence of 0.4 mg/ml puromycin (Calbiochem-Novabiochem, San Diego, Calif.). Two independent transfections were performed for each vector.
Immunoblot analysis. Lysates were prepared from subconfluent cells as described (Li et al., 2001a). Equal amounts of protein were separated by SDS-PAGE and transferred to nitrocellulose membranes. […] The immunocomplexes were detected with horseradish peroxidase-conjugated secondary antibodies and enhanced chemiluminescence (ECL, Amersham Biosciences, Piscataway, N.J.). Intensity of the signals was determined by densitometric scanning. […]
To extend these findings, MUC1 C-ter was expressed with a GFP tag at the N-terminus and assessed mitochondrial localization. […]

Like-named read-outs stand apart in the source and are kept apart here.

Consider `CC1(C)CC[C@]2(C(=O)O)CC[C@]3(C)[C@H](C(=O)C=C4[C@@]5(C)C=C(C#N)C(=O)C(C)(C)[C@@H]5CC[C@]43C)[C@@H]2C1` [CDDO], for which the “MUC1 protein (immunoblot)” value in [1] (5 μM) is given as “decreased levels”; in data set [1] (1 or 3 μM at 24 hr), “little if any effect”. The “MUC1 transcripts (RT-PCR)” value in [2] is “decrease”. In addition, the “ROS (oxidation of DCF)” value in [3] is recorded as “detectable increases”. Further, in data set [4], the β-actin gene expression entry was “no apparent effect”.

Take `[NH2][Pt]([NH2])([Cl])[Cl]` [CDDP, cisplatin]: the “MUC1 induction by diverse cytotoxic agents” value in data set [5] is listed as “induced”. The figures for the “mitochondrial transmembrane potential (ΔΨm)” value in data set [6] (ZR-75-1/MUC1siRNA cells) and in data set [6] (ZR-75-1/vector cells) were “clear loss” and “little if any decrease”, respectively. The “cytochrome C release (immunoblot)” value in [7] is given as “attenuated”. Also, the apoptosis result in [8] (ZR-75-1/MUC1siRNA cells) is given as “over 60%”; in data set [8] (ZR-75-1/vector cells), “approximately 25%”. In addition, the “sensitivity of tumors to treatment” value in [9] (ZR-75-1/MUC1siRNA tumors) is given as “considerably more sensitive”. Moreover, the tumor growth result in [9] (ZR-75-1/vector tumors) is given as “partial slowing”. The “release of Smac/DIABLO” value in [10] (24, 48 and 72 h, HCT116/MUC1 compared to HCT116/vector and HCT116/MUC1(Y46F) cells) is “attenuated”. The “CDDP-induced cytochrome c release” value in [10] (HCT116/MUC1(Y46F) cells) is recorded as “ineffective in blocking”. Also, the “release of cytochrome c” value in [10] (HCT116/MUC1 cells) was “significantly attenuated”. The “caspase-3-mediated cleavage of PKCδ” value in data set [10] (HCT116/MUC1 compared to HCT116/vector and HCT116/MUC1(Y46F) cells) is recorded as “attenuated”. In addition, the “CDDP-induced activation of caspase-3” value in data set [10] (HCT116/MUC1 compared to HCT116/vector cells) is given as “attenuates”. Also, the “release of apoptosis-inducing factor (AIF)” value in data set [10] (HCT116/MUC1 compared to vector or MUC1(Y46F) cells) is on record as “attenuated release”. The cytosolic cytochrome c result in data set [10] (HCT116/vector cells) is given as “increased levels”. Further, the cell death in [11] (HCT116/MUC1 cells) is < 30%; in [11] (HCT116/vector and HCT116/MUC1(Y46F) cells), > 90%. In addition, the “attenuation of CDDP-induced apoptosis” value in data set [12] (HCT116/MUC1(Y46F) cells) is recorded as “not”. In addition, the CDDP-induced apoptosis result in data set [12] (HCT116/MUC1 cells) is “attenuated”. For the same compound, in data set [12] (HCT116/vector cells, 100 μM CDDP for 24 h), the “apoptosis (sub-G1 DNA)” value is “approximately 40%”.

`C[C@@H]1C[C@@H]([C@H](O)CC2CC(=O)NC(=O)C2)C(=O)[C@@H](C)C1` [CHX, cycloheximide]: the “expression of MUC1 C-ter” value in data set [13] is on record as “no apparent effect”.

As for “EGF: EGF (10 ng/ml; Calbiochem-Novabiochem)”, in data set [14], the “mitochondrial targeting of MUC1 C-ter” value is “little effect”.

Values taken from patent publication US20050042209A1, “MUC1 extracellular domain and cancer treatment compositions and methods derived therefrom” (priority 2000, published 2005).
